Test results: patent US20250074885A1, “CRYSTALLINE FREEBASE FORM OF 2-(4-CHLOROBENZYLAMINO)-4-(4-TERT-BUTYLAMINOPIPERIDIN-1-YL)-QUINOLINE AND USES THEREOF” (Genoscience Pharma, priority 2023, published 2025)
Where two headings read alike, the source gives them in different places.

Key:
Type in all cases: physicochemical
[1] = Chemical stability of bulk powder under temperature and humidity stress (HPLC); details: for Chemical stability as a bulk powder: at least 1 month at +40° C./75% RH and at +60° C.; for % of unchanged compound left (HPLC-UV at 323 nm): bulk powder, versus standard solutions
Protocol: (§1) The chemical and physical accelerated stability of crystalline form I (see example II) is studied in order to anticipate potential stability issues upon storage or ageing.
(§2) Crystalline form I powder is stored for 1 month at +40° C./75% RH and is also stored for 1 month at +60° C. (with % RH<10%).
The chemical stability is then assessed by chromatography by external standardization versus a freshly prepared (non-stressed crystalline form I) standard solution. For that purpose, three samples (exactly weighted) are stored for each condition.

[2] = Physical stability of bulk powder under temperature and humidity stress (XRPD, DSC, TGA); details: for Physical stability as a bulk powder: at least 1 month at +40° C./75% HR and at +60° C.
Protocol: as §1, §2
The physical stability is also assessed by XRPD, DSC and TGA analyses by comparing the XRPD and thermal profiles of stressed samples to those of a non-stressed sample. For that purpose, one more sample is stored in each condition (respectively +40° C./75% RH and +60° C.).

[3] = Visual (apparent) solubility assessment in re-crystallization solvents; details: for solubility: 20 °C, organic solvent or mixture, thermodynamic from solid, read-out: Estimated solubility
Protocol: Prior to launching the slurry experiments, an “apparent solubility” is determined in all ageing media. To do so, to accurately weighed small amounts of 2-(4-chlorobenzylamino)-4-(4-tert-butylaminopiperidin-1-yl)-quinoline, aliquots of each solvent are successively added until complete dissolution is observed. The corresponding solubility S is then estimated.

[4] = Dynamic water vapor sorption (DVS) analysis; details: for Hygroscopicity: DVS; for Conversion into hydrated form: high relative humidity up to 95%
Protocol: The dynamic vapor sorption (DVS) analysis (gas water sorption) is performed on a DVS-Intrinsic incubator (SMS Ltd), equipped with DVS-Intrinsic Control Software 1.0.
The sample, placed in an aluminum basket holder, is submitted to a full-cycle analysis (sorption followed by desorption cycle) under the conditions described in Table 9.
The sample is first pre-dried under a stream of dry air until a stabilized sample mass is observed. Then, the relative humidity is increased by 5% increments. At each step, the sample mass is allowed to increase until equilibrium is reached (according to a given dm/dt target), and then a new relative humidity rise occurs. Relative humidity is ramped up to 95%. After equilibration at this point, desorption begins in a similar stepwise manner, with sample mass decrease again allowed to stabilize after each incremental humidity decrease.
With both segments of the above described method, the sample mass recording allows describing of the whole vapor water sorption/desorption behavior versus relative humidity.

[5] = Thermogravimetric analysis (TGA), thermal decomposition
Protocol: Thermogravimetric analysis is performed on a TA Instruments TGA Hi-Res 2950 apparatus equipped with an evolved gas analysis furnace. A ThermoNicolet Nexus FTIR bench, equipped with FTIR cell gas analysis, is coupled to TGA apparatus via a transfer line.
A sample is placed in an opened aluminum basket and analyzed according to conditions described in Table 6.

[6] = 1 month +40° C./75% RH and +60° C.

SMILES: CC(C)(C)NC1CCN(c2cc(NCc3ccc(Cl)cc3)nc3ccccc23)CC1 [2-(4-chlorobenzylamino)-4-(4-tert-butylaminopiperidin-1-yl)-] [2-(4-chlorobenzylamino)-4-(4-tert-butylaminopiperidin-1-yl)-quinoline]
- Chemical stability as a bulk powder [1]: chemically and physically stable
- Physical stability as a bulk powder [2]: chemically and physically stable
- Solubility (grade in words) ([3]; Acetone, 20-25° C.): Medium
- Solubility (grade in words) ([3]; EtAc, 20-25° C.): Medium
- Solubility (grade in words) ([3]; EtOH, 20-25° C.): Medium
- Solubility (grade in words) ([3]; IPA, 20-25° C.): Low
- Solubility (grade in words) ([3]; IPAC, 20-25° C.): Medium
- Solubility (grade in words) ([3]; MEK, 20-25° C.): Low
- Solubility (grade in words) ([3]; Propanol-1, 20-25° C.): Medium
- Hygroscopicity ([4]; +25° C.): not hygroscopic at all
- Conversion into hydrated form [4]: does not convert into any hydrated form

SMILES: CC(C)(C)NC1CCN(c2cc(NCc3ccc(Cl)cc3)nc3ccccc23)CC1 [Crystalline Form I, 2-(4-chlorobenzylamino)-4-(4-tert-butylaminopiperidin-1-yl)-quinoline]
- % purity at 323 nm after stress ([1]; 1 month +40° C./75% RH): (% purity = 98.7% at 323 nm)
- Impurity profile compared to the standard profile (HPLC-UV at 323 nm, 252 nm and 203 nm) ([1]; 1 month +40° C./75% RH): No additional impurity
- % purity at 323 nm after stress ([1]; 1 month +60° C.): (% purity = 98.8% at 323 nm)
- Impurity profile compared to the standard profile (HPLC-UV at 323 nm, 252 nm and 203 nm) ([1]; 1 month +60° C.): No additional impurity
- Chemical stability as a bulk powder [1]: chemically stable
- % of unchanged compound left (HPLC-UV at 323 nm) ([1]; 1 month +40° C./75% RH): 99.7%
- % of unchanged compound left (HPLC-UV at 323 nm) ([1]; 1 month +60° C.): 100.5%
- XRPD results ([2]; 1 month +40° C./75% HR): Diffractogram comparable to the initial
- TOnset of main thermal decomposition (TGA) ([2]; 1 month +40° C./75% RH): +333 °C
- TGA difference between stressed samples and initial physical form [2, 6]: No difference
- XRPD pattern difference between stressed samples and initial physical form [2, 6]: No XRPD pattern difference
- TOnset of main thermal decomposition (TGA) ([2]; 1 month +60° C.): +334 °C
- XRPD results ([2]; 1 month +60° C.): Diffractogram comparable to the initial
- Physical stability as a bulk powder [2]: physically stable
- DSC profile difference between stressed samples and initial physical form ([2]; stored at +40° C./75% RH and at +60° C.): No DSC profile difference
- TOnset of main thermal decomposition (TGA) ([5]; non-stressed sample (initial analysis)): +333 °C
- Mass loss before the main thermal decomposition (TGA) ([5]; non-stressed sample, upon heating): no mass loss is detected
- Sample mass variation upon sorption ([4]; +25° C., 0% to 10% RH): no significant mass variation
- Hygroscopicity ([4]; +25° C.): non-hygroscopic at all
- Final sample mass lower than starting mass after desorption ([4]; +25° C., back to 0% RH, cycle 1, versus mass after pre-drying): 0.09%
- Hysteresis on loss of adsorbed water (desorption) ([4]; +25° C., between 95% and 65% RH): without hysteresis
- Mass loss during preliminary drying phase ([4]; +25° C./0% RH, before sorption): 0.12%
- Water uptake ([4]; +25° C./60% RH, sorption cycle 1): 0.09%
- Total water uptake ([4]; +25° C./95% RH, sorption cycle 1): 0.29%
- Conversion into hydrated form [4]: does not convert into any hydrated form

SMILES: CC(C)(C)NC1CCN(c2cc(NCc3ccc(Cl)cc3)nc3ccccc23)CC1 [2-(4-chlorobenzylamino)-4-(4-tert-butylaminopiperidin-1-yl)-quinoline]
- solubility ([3]; Acetone, visual, 20-25° C.): > 16 mg/mL
- solubility ([3]; EtAc, visual, 20-25° C.): > 17.1 mg/mL
- solubility ([3]; EtOH, visual, 20-25° C.): > 9.8 mg/mL
- solubility ([3]; IPA, visual, 20-25° C.): > 2.6 mg/mL
- solubility ([3]; IPAC, visual, 20-25° C.): > 15.2 mg/mL
- solubility ([3]; MEK, visual, 20-25° C.): > 2.4 mg/mL
- solubility ([3]; Propanol-1, visual, 20-25° C.): > 15.1 mg/mL
